Assay: Evaluation of stability in liver microsome
Details: mouse liver microsome, 1 μM, 37° C. for 30 minutes
Procedure: Solutions of the test compounds in DMSO/acetonitrile (the final concentration of each test compound was 1 μM, the final concentration of DMSO was 0.01%, and the final concentration of acetonitrile was 1%) were individually added to a liver microsome mixture solution (mouse liver microsome with a final concentration of 0.25 mg/mL, a potassium phosphate buffer with a final concentration of 100 mM, and magnesium chloride with a final concentration of 3 mM), and each mixture was pre-incubated at 37° C. for 5 minutes. […] After incubation at 37° C. for 30 minutes, a double amount of ethanol was added thereto to terminate the reaction, thereby obtaining post-reaction samples. A double amount of ethanol was added to each of the remaining mixture solutions, and a NADPH-generating system was further added thereto, thereby obtaining pre-reaction samples. The pre-reaction samples and post-reaction samples were centrifuged at 2000×g, and their supernatant was filtered through a glass filter. Each filtrate was then introduced into LC-MS/MS, and MS/MS peaks of the test compounds were detected. From the ratio of the post-reaction MS/MS peak to the pre-reaction MS/MS peak of the test compounds, the percentage of the remaining test compounds (remaining %) was calculated.

**Q.** With COCc1ccc(NC(=O)c2c(OCC3CCOCC3)n(C3(C)CC3)c3ncnc(N)c23)cc1 [Example 141, 4-amino-N-(4-(methoxymethyl)phenyl)-7-(1-methylcyclopropyl)-6-((tetrahydro-2H-pyran-4-yl)methoxy)-7H-pyrrolo[2,3-d]pyrimidine-5-carboxamide] as the compound, how does the “Remaining (%)” value read?
**A.** The value was 68%.

**Q.** With COCc1ccc(NC(=O)c2c(C#CCC3(O)CCOCC3)n(C3(C)CC3)c3ncnc(N)c23)cc1 [Example 143, 4-amino-6-(3-(4-hydroxytetrahydro-2H-pyran-4-yl)prop-1-yn-1-yl)-N-(4-(methoxymethyl)phenyl)-7-(1-methylcyclopropyl)-7H-pyrrolo[2,3-d]pyrimidine-5-carboxamide] as the compound, how does the “Remaining (%)” value read?
**A.** Its value is 68%.

**Q.** For COCc1ccc(NC(=O)c2c(C#Cc3cnn(C(C)C)c3)n(C3(C)CC3)c3ncnc(N)c23)cc1 [Example 144, 4-amino-6-((1-isopropyl-1H-pyrazol-4-yl)ethynyl)-N-(4-(methoxymethyl)phenyl)-7-(1-methylcyclopropyl)-7H-pyrrolo[2,3-d]pyrimidine-5-carboxamide], which “Remaining (%)” value is on record?
**A.** Its value is 79%.

**Q.** Which “Remaining (%)” value does the source give for COCc1ccc(NC(=O)c2c(-c3ccc(CO)cc3)n(C3(C)CC3)c3ncnc(N)c23)cc1 [Example 145, 4-amino-6-(4-(hydroxymethyl)phenyl)-N-(4-(methoxymethyl)phenyl)-7-(1-methylcyclopropyl)-7H-pyrrolo[2,3-d]pyrimidine-5-carboxamide] here?
**A.** Its value is 72%.

**Q.** For COCc1ccc(NC(=O)c2c(-c3ccc(NC(C)=O)nc3)n(C3(C)CC3)c3ncnc(N)c23)cc1 [Example 147, 6-(6-acetamidopyridin-3-yl)-4-amino-N-(4-(methoxymethyl)phenyl)-7-(1-methylcyclopropyl)-7H-pyrrolo[2,3-d]pyrimidine-5-carboxamide], which “Remaining (%)” value is on record?
**A.** Its value is 68%.

**Q.** Which “Remaining (%)” value does the source give for COCc1ccc(NC(=O)c2c(-c3ccc(O)cc3)n(C3(C)CC3)c3ncnc(N)c23)cc1 [Example 148, 4-amino-6-(4-hydroxyphenyl)-N-(4-(methoxymethyl)phenyl)-7-(1-methylcyclopropyl)-7H-pyrrolo[2,3-d]pyrimidine-5-carboxamide] here?
**A.** Its value is 61%.

**Q.** For C=C(C)c1c(C(=O)Nc2ccc(COC)cc2)c2c(N)ncnc2n1C1(C)CC1 [Example 149, 4-amino-N-(4-(methoxymethyl)phenyl)-7-(1-methylcyclopropyl)-6-(prop-1-en-2-yl)-7H-pyrrolo[2,3-d]pyrimidine-5-carboxamide], which “Remaining (%)” value is on record?
**A.** The value was 62%.

**Q.** Which “Remaining (%)” value does the source give for COCc1ccc(NC(=O)c2c(-c3cnn(C)c3)n(C3(C)CC3)c3ncnc(N)c23)cc1 [Example 150, 4-amino-N-(4-(methoxymethyl)phenyl)-6-(1-methyl-1H-pyrazol-4-yl)-7-(1-methylcyclopropyl)-7H-pyrrolo[2,3-d]pyrimidine-5-carboxamide] here?
**A.** Its value is 78%.

**Q.** Which “Remaining (%)” value does the source give for COCc1ccc(NC(=O)c2c(C#CCC3CCOCC3)n(C3(C)CC3)c3ncnc(N)c23)cc1 [Example 152, 4-amino-N-(4-(methoxymethyl)phenyl)-7-(1-methylcyclopropyl)-6-(3-(tetrahydro-2H-pyran-4-yl)prop-1-yn-1-yl)-7H-pyrrolo[2,3-d]pyrimidine-5-carboxamide] here?
**A.** Its value is 57%.

**Q.** With COCc1ccc(NC(=O)c2c(-c3ccccc3)n(C3(C)CC3)c3ncnc(N)c23)cc1 [Example 154, 4-amino-N-(4-(methoxymethyl)phenyl)-7-(1-methylcyclopropyl)-6-phenyl-7H-pyrrolo[2,3-d]pyrimidine-5-carboxamide] as the compound, how does the “Remaining (%)” value read?
**A.** The value was 50%.

**Q.** For COCc1ccc(NC(=O)c2c(C#Cc3ccc(N)nc3)n(C3(C)CC3)c3ncnc(N)c23)cc1 [Example 155, 4-amino-6-((6-aminopyridin-3-yl)ethynyl)-N-(4-(methoxymethyl)phenyl)-7-(1-methylcyclopropyl)-7H-pyrrolo[2,3-d]pyrimidine-5-carboxamide], which “Remaining (%)” value is on record?
**A.** Its value is 64%.

**Q.** For COCc1ccc(NC(=O)c2c(C#CCC3NC(=O)NC3=O)n(C3(C)CC3)c3ncnc(N)c23)cc1 (centres unmarked) [Example 156, 4-amino-6-(3-(2,5-dioxoimidazolidin-4-yl)prop-1-yn-1-yl)-N-(4-(methoxymethyl)phenyl)-7-(1-methylcyclopropyl)-7H-pyrrolo[2,3-d]pyrimidine-5-carboxamide], which “Remaining (%)” value is on record?
**A.** The value was 67%.

**Q.** With CCC(O)CC#Cc1c(C(=O)Nc2ccc(COC)cc2)c2c(N)ncnc2n1C1(C)CC1 (centres unmarked) [Example 157, 4-amino-6-(4-hydroxyhex-1-yn-1-yl)-N-(4-(methoxymethyl)phenyl)-7-(1-methylcyclopropyl)-7H-pyrrolo[2,3-d]pyrimidine-5-carboxamide] as the compound, how does the “Remaining (%)” value read?
**A.** Its value is 59%.

**Q.** Which “Remaining (%)” value does the source give for COCc1ccc(NC(=O)c2c(C#Cc3ccc4c(c3)NCCO4)n(C3(C)CC3)c3ncnc(N)c23)cc1 [Example 158, 4-amino-6-((3,4-dihydro-2H-benzo[b][1,4]oxazin-6-yl)ethynyl)-N-(4-(methoxymethyl)phenyl)-7-(1-methylcyclopropyl)-7H-pyrrolo[2,3-d]pyrimidine-5-carboxamide] here?
**A.** Its value is 85%.

**Q.** For COCc1ccc(NC(=O)c2c(C#Cc3cnc4ccoc4c3)n(C3(C)CC3)c3ncnc(N)c23)cc1 [Example 159, 4-amino-6-(furo[3,2-b]pyridin-6-ylethynyl)-N-(4-(methoxymethyl)phenyl)-7-(1-methylcyclopropyl)-7H-pyrrolo[2,3-d]pyrimidine-5-carboxamide], which “Remaining (%)” value is on record?
**A.** Its value is 78%.

**Q.** With COCc1ccc(NC(=O)c2c(C#Cc3ccc[nH]3)n(C3(C)CC3)c3ncnc(N)c23)cc1 [Example 161, 6-((1H-pyrrol-2-yl)ethynyl)-4-amino-N-(4-(methoxymethyl)phenyl)-7-(1-methylcyclopropyl)-7H-pyrrolo[2,3-d]pyrimidine-5-carboxamide] as the compound, how does the “Remaining (%)” value read?
**A.** Its value is 68%.

**Q.** Which “Remaining (%)” value does the source give for COCc1ccc(NC(=O)c2c(C#Cc3ccccc3)n(C3(C)CC3)c3ncnc(N)c23)cc1 [Example 162, 4-amino-N-(4-(methoxymethyl)phenyl)-7-(1-methylcyclopropyl)-6-(phenylethynyl)-7H-pyrrolo[2,3-d]pyrimidine-5-carboxamide] here?
**A.** Its value is 76%.

**Q.** For COCc1ccc(NC(=O)c2c(C#Cc3ccc(OC)cc3)n(C3(C)CC3)c3ncnc(N)c23)cc1 [Example 165, 4-amino-N-(4-(methoxymethyl)phenyl)-6-((4-methoxypheny)ethynyl)-7-(1-methylcyclopropyl)-7H-pyrrolo[2,3-d]pyrimidine-5-carboxamide], which “Remaining (%)” value is on record?
**A.** Its value is 90%.

**Q.** Which “Remaining (%)” value does the source give for COCc1ccc(NC(=O)c2c(-c3cn[nH]c3)n(C3(C)CC3)c3ncnc(N)c23)cc1 [Example 167, 4-amino-N-(4-(methoxymethyl)phenyl)-7-(1-methylcyclopropyl)-6-(1H-pyrazol-4-yl)-7H-pyrrolo[2,3-d]pyrimidine-5-carboxamide] here?
**A.** Its value is 80%.

**Q.** With COCc1ccc(NC(=O)c2c(-c3ccc(N4CCN(C)CC4)cc3)n(C3(C)CC3)c3ncnc(N)c23)cc1 [Example 171, 4-amino-N-(4-(methoxymethyl)phenyl)-7-(1-methylcyclopropyl)-6-(4-(4-methylpiperazin-1-yl)phenyl)-7H-pyrrolo[2,3-d]pyrimidine-5-carboxamide] as the compound, how does the “Remaining (%)” value read?
**A.** Its value is 77%.

**Q.** With COCc1ccc(NC(=O)c2c(C#Cc3ccccn3)n(C3(C)CC3)c3ncnc(N)c23)cc1 [Example 172, 4-amino-N-[4-(methoxymethyl)phenyl]-7-(1-methylcyclopropyl)-6-(pyridin-2-ylethynyl)-7H-pyrrolo[2,3-d]pyrimidine-5-carboxamide] as the compound, how does the “Remaining (%)” value read?
**A.** The value was 61%.

**Q.** Which “Remaining (%)” value does the source give for COCc1ccc(NC(=O)c2c(C#CC(C)(C)O)n(C3(C)CC3)c3ncnc(N)c23)cc1 [Example 174, 4-amino-6-(3-hydroxy-3-methylbut-1-yn-1-yl)-N-(4-(methoxymethyl)phenyl)-7-(1-methylcyclopropyl)-7H-pyrrolo[2,3-d]pyrimidine-5-carboxamide] here?
**A.** The value was 72%.

**Q.** With COCc1ccc(NC(=O)c2c(C#Cc3cncc(F)c3)n(C3(C)CC3)c3ncnc(N)c23)cc1 [Example 175, 4-amino-6-((5-fluoropyridin-3-yl)ethynyl)-N-(4-(methoxymethyl)phenyl)-7-(1-methylcyclopropyl)-7H-pyrrolo[2,3-d]pyrimidine-5-carboxamide] as the compound, how does the “Remaining (%)” value read?
**A.** The value was 66%.

**Q.** Which “Remaining (%)” value does the source give for COCc1ccc(NC(=O)c2c(C#Cc3ccsc3)n(C3(C)CC3)c3ncnc(N)c23)cc1 [Example 176, 4-amino-N-(4-(methoxymethyl)phenyl)-7-(1-methylcyclopropyl)-6-(thiophen-3-ylethynyl)-7H-pyrrolo[2,3-d]pyrimidine-5-carboxamide] here?
**A.** Its value is 70%.

**Q.** For COCc1ccc(NC(=O)c2c(C#CC3(O)CCOC3)n(C3(C)CC3)c3ncnc(N)c23)cc1 (centres unmarked) [Example 177, 4-amino-6-((3-hydroxytetrahydrofuran-3-yl)ethynyl)-N-(4-(methoxymethyl)phenyl)-7-(1-methylcyclopropyl)-7H-pyrrolo[2,3-d]pyrimidine-5-carboxamide], which “Remaining (%)” value is on record?
**A.** Its value is 72%.

**Q.** For COCc1ccc(NC(=O)c2c(C#CCN3CC[S+]([O-])CC3)n(C3(C)CC3)c3ncnc(N)c23)cc1 [Example 178, 4-amino-N-(4-(methoxymethyl)phenyl)-7-(1-methylcyclopropyl)-6-(3-(1-oxidethiomorpholino)prop-1-yn-1-yl)-7H-pyrrolo[2,3-d]pyrimidine-5-carboxamide], which “Remaining (%)” value is on record?
**A.** Its value is 88%.

**Q.** Which “Remaining (%)” value does the source give for COCc1ccc(NC(=O)c2c(-c3ccc(CO)nc3)n(C3(C)CC3)c3ncnc(N)c23)cc1 [Example 179, 4-amino-6-(6-(hydroxymethyl)pyridin-3-yl)-N-(4-(methoxymethyl)phenyl)-7-(1-methylcyclopropyl)-7H-pyrrolo[2,3-d]pyrimidine-5-carboxamide] here?
**A.** Its value is 85%.

**Q.** Which “Remaining (%)” value does the source give for COCc1ccc(NC(=O)c2c(C#Cc3cn(C)nc3C)n(C3(C)CC3)c3ncnc(N)c23)cc1 [Example 181, 4-amino-6-((1,3-dimethyl-1H-pyrazol-4-yl)ethynyl)-N-(4-(methoxymethyl)phenyl)-7-(1-methylcyclopropyl)-7H-pyrrolo[2,3-d]pyrimidine-5-carboxamide] here?
**A.** Its value is 62%.

**Q.** Which “Remaining (%)” value does the source give for COCc1ccc(NC(=O)c2c(C#Cc3cnn(C)c3C)n(C3(C)CC3)c3ncnc(N)c23)cc1 [Example 182, 4-amino-6-((1,5-dimethyl-1H-pyrazol-4-yl)ethynyl)-N-(4-(methoxymethyl)phenyl)-7-(1-methylcyclopropyl)-7H-pyrrolo[2,3-d]pyrimidine-5-carboxamide] here?
**A.** The value was 61%.

Reference: patent US11046696B2, “Fused pyrimidine compound or salt thereof” (TAIHO PHARMACEUTICAL CO., LTD., priority 2016, dated 2021)
